Source: US20160130226A1, “SPIRO-SUBSTITUTED OXINDOLE DERIVATIVES HAVING AMPK ACTIVITY” (BOEHRINGER INGELHEIM INTERNATIONAL GMBH, priority 2013, published 2016)

Molecular target: T1, AMPK beta 1 (Homo sapiens, UniProt Q13131+Q9Y478)
T1 construct: in-cell-ELISA for phospho-ACC (Acetyl-CoA carboxylase 1) in HepG2 cells (liver); endogenous in cells; host or cells: HepG2 (assignment to the beta 1 column inferred)
Assay: in-cell-ELISA for phospho-ACC: activation of AMPK, beta 1 (HepG2 cells / C2C12 myotubes)
Format: cell-based
Conditions: 2 h, percentage activation over vehicle control; for activation at 3 µM / activation at 10 µM / activation at 1 µM: read-out: Percentage activation of beta 1 at given concentration
Experimental: Activation of AMPK by various compounds were measured using in-cell-ELISA for phospho-ACC (Acetyl-CoA carboxylase 1) in HepG2 cells (liver) and fully differentiated myotubes (C2C12 cells) grown in 96 well plate. Cells were treated with 1 μM, 3 μM or 10 μM of the molecule (Example) for 2 h in serum free DMEM media. After methanol fixation, cells were blocked with BSA followed by addition of anti-phospho ACC antibody (Cell Signaling) and HRP conjugated secondary antibody. Absorbance values taken at 450 nm were normalized with total DNA (Hoechest stain). Results were expressed as percentage activation over vehicle control.
Percentage activation at compound (Example) concentration of 1, 3 or 10 μM for compounds according to the invention are shown in the following table. The number of the compound corresponds to the number of the Example (Ex) in the experimental section.

T1 sequence (Q9Y478 2-270 limits assumed): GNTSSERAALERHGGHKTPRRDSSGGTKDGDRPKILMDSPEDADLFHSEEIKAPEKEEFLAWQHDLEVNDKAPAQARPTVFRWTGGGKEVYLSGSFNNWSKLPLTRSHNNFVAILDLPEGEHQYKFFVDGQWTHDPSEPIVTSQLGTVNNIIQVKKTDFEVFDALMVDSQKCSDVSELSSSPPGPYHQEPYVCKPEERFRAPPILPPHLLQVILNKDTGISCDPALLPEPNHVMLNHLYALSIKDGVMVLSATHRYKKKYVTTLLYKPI
T1 sequence (Q13131 whole entry): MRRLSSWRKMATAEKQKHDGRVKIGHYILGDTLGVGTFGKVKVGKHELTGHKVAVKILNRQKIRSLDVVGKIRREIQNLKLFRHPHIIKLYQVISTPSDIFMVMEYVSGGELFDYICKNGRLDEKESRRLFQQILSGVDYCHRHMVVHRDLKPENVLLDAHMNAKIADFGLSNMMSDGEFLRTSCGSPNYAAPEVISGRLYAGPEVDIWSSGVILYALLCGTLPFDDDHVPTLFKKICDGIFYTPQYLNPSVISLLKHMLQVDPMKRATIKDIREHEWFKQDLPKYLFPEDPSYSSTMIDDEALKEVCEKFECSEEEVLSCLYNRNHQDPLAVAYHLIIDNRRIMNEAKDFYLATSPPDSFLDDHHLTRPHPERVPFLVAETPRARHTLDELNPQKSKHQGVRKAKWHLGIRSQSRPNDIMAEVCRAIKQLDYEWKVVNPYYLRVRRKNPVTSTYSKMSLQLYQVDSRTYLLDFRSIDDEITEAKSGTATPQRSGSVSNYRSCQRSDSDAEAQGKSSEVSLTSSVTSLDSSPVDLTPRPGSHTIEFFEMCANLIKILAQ
T1 sequence (P54619 whole entry partner): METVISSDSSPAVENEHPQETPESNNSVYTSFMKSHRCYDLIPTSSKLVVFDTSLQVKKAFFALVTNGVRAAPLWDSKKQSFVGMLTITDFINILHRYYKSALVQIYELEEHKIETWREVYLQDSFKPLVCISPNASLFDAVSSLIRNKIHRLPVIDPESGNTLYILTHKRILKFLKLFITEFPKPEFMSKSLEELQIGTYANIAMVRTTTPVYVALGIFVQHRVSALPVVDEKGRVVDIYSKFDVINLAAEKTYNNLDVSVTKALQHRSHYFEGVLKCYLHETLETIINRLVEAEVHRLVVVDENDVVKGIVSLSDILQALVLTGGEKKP

| Compound | activation at 3 µM (3 μM) [%] | activation at 10 µM (10 μM) [%] | also measured |
| --- | --- | --- | --- |
| Cc1ccc(C2CC23C(=O)Nc2cc(Cl)c(-c4ccc(-c5ccc(-n6cncn6)cc5)cc4)cc23)cc1C(=O)O (stereo not shown) [Example 119] | – | – | Percentage activation of beta 1 at given concentration (1 μM): 99% at 1 μM |
| Cc1ccc(C2CC23C(=O)Nc2cc(Cl)c(-c4ccc(-c5ccc(-n6cncn6)cc5)cc4)cc23)cc1C(C)(C)O (stereo not shown) [Example 186] | 32 | – | – |
| O=C(O)Cc1cccc(C2CC23C(=O)Nc2cc(Cl)c(-c4ccc(-c5ccncc5)cc4)cc23)c1 (stereo not shown) [Example 61] | – | – | Percentage activation of beta 1 at given concentration (3 μM): 118% at 3 μM |
| CC(C)c1ccc(C2CC23C(=O)N(C)c2cc(Cl)c(-c4ccc(-c5ncccc5O)cc4)cc23)cc1C(=O)O (stereo not shown) [Example 37] | – | 112 | – |
| CC(C)c1ccc(C2CC23C(=O)Nc2cc(Cl)c(-c4ccc(-c5ccccc5O)cn4)cc23)cc1C(=O)O (stereo not shown) [Example 24] | – | 85 | – |
| Cn1cc(C2CC23C(=O)Nc2cc(F)c(-c4ccc(-c5ccccc5O)cc4)cc23)cc1C(=O)O (stereo not shown) [Example 13] | – | 11 | – |
| Cc1ccc(C2CC23C(=O)Nc2cc(Cl)c(S(=O)(=O)NC4CC4)cc23)cc1C(=O)O (stereo not shown) [Example 90] | – | 25 | – |
| Cc1ccc(C2CC23C(=O)Nc2cc(Cl)c(-c4ccc(-c5ccc(-n6cncn6)cc5)c(F)c4)cc23)cc1C(=O)O (stereo not shown) [Example 151] | – | – | Percentage activation of beta 1 at given concentration (1 μM): 25% at 1 μM |
| CCn1cc(C2CC23C(=O)Nc2cc(Cl)c(-c4ccc(-c5ccccc5O)cc4)cc23)cc1C(=O)O (stereo not shown) [Example 39] | – | 28 | – |
| O=C(O)c1cccc(C2CC23C(=O)Nc2cc(F)c(-c4ccc(-c5ccccc5O)cc4)cc23)c1 (stereo not shown) [Example 2] | 60 | – | – |
| Cc1ccc(C2CC23C(=O)Nc2cc(Cl)c(-c4ccc(-c5ccccc5O)cn4)cc23)cc1CC(=O)O (stereo not shown) [Example 19] | 43 | – | – |
| COc1ccc(C2CC23C(=O)Nc2cc(Cl)c(-c4ccc(-c5ccccc5)cn4)cc23)cc1C(=O)O (stereo not shown) [Example 77] | – | 17 | – |
| COc1ccc(C2CC23C(=O)Nc2cc(F)c(-c4ccc(-c5ccccc5O)cc4)cc23)cc1CC(=O)O (stereo not shown) [Example 12] | – | 12 | – |
| Cn1cc(C2CC23C(=O)Nc2cc(Cl)c(-c4ccc(-c5ccc(-n6cccn6)cc5)cc4)cc23)cc1C(=O)O (stereo not shown) [Example 120] | – | 48 | – |
| COc1ccc(C2CC23C(=O)Nc2cc(Cl)c(-c4ccc(-c5ccncc5)cc4)cc23)cc1CC(=O)O (stereo not shown) [Example 70] | 59 | – | – |
| Cn1c(C(=O)O)ccc1C1CC12C(=O)Nc1cc(Cl)c(-c3ccc(-c4ccccc4O)cc3)cc12 (stereo not shown) [Example 42] | – | 42 | – |
| O=C(O)Cc1cccc(C2CC23C(=O)Nc2cc(F)c(-c4ccc(-c5ccc(-n6cccn6)cc5)cc4)cc23)c1 (stereo not shown) [Example 171] | – | – | activation at 1 µM (1 μM): 44% |
| Cc1ccc(C2CC23C(=O)Nc2cc(F)c(-c4ccc(-c5ccc(-n6cccn6)cc5)cc4)cc23)cc1C(=O)O (stereo not shown) [Example 144] | – | – | Percentage activation of beta 1 at given concentration (1 μM): 118% at 1 μM |
| Cc1ccc(C2CC23C(=O)N(C)c2cc(Cl)c(-c4ccc(-c5ccncc5O)cc4)cc23)cc1C(=O)O (stereo not shown) [Example 41] | – | 29 | – |
| O=C1Nc2cc(F)c(-c3ccc(-c4ccccc4O)cc3)cc2C12CC2c1cccc(-c2nnn[nH]2)c1 (stereo not shown) [Example 179] | 23 | – | – |
| O=C1Nc2cc(Cl)c(-c3ccc(-c4ccc(-n5cncn5)cc4)cc3)cc2C12CC2c1ccc(-c2nnn[nH]2)cc1 (stereo not shown) [Example 191] | 21 | – | – |

| Compound | activation at 3 µM (3 μM) [%] | activation at 10 µM (10 μM) [%] | also measured |
| --- | --- | --- | --- |
| Cc1ccc(C2CC23C(=O)Nc2cc(Cl)c(-c4ccc(-c5ccc(-n6cncn6)cc5)c(F)c4)cc23)cc1C(=O)O (stereo not shown) [Example 152] | – | – | Percentage activation of beta 1 at given concentration (1 μM): 95% at 1 μM |
| Cc1ccc(C2CC23C(=O)Nc2cc(Cl)c(-c4ccc(-c5ccccc5O)cc4)cc23)cc1C(=O)Nc1nnn[nH]1 (stereo not shown) [Example 183] | 19 | – | – |
| Cc1ccc(C2CC23C(=O)Nc2cc(F)c(-c4ccc(-c5ccc(-n6cncn6)cc5)cc4)cc23)cc1C(=O)O (stereo not shown) [Example 147] | – | – | Percentage activation of beta 1 at given concentration (1 μM): 32% at 1 μM |
| Cc1ccc(C2CC23C(=O)N(C(C)C)c2cc(Cl)c(-c4ccc(-c5ccncc5)cc4)cc23)cc1C(=O)O (stereo not shown) [Example 104] | 56 | – | – |
| COc1ccc(C2CC23C(=O)Nc2cc(F)c(-c4ccc(-c5ccc(-n6cccn6)cc5)cc4)cc23)cc1C(=O)O (stereo not shown) [Example 164] | – | – | activation at 1 µM (1 μM): 19% |
| CC(C)(C(=O)O)c1ccc(C2CC23C(=O)Nc2cc(F)c(-c4ccc(-c5ccc(-n6cncn6)cc5)cc4)cc23)cc1 (stereo not shown) [Example 163] | – | – | Percentage activation of beta 1 at given concentration (1 μM): 131% at 1 μM |
| Cn1ccc2cc(-c3cc4c(cc3F)NC(=O)C43CC3c3cccc(CC(=O)O)c3)ccc21 (stereo not shown) [Example 56] | – | 79 | – |
| O=C(O)Cc1cccc(C2CC23C(=O)Nc2cc(F)c(-c4ccc(-c5ccc(-n6ccnn6)cc5)cc4)cc23)c1 (stereo not shown) [Example 174] | – | – | activation at 1 µM (1 μM): 87% |
| Cc1ccc(C2CC23C(=O)Nc2cc(Cl)c(-c4ccc(C5(CO)CC5)cc4)cc23)cc1C(=O)O (stereo not shown) [Example 44] | – | – | Percentage activation of beta 1 at given concentration (10 μM): 11% at 10 μM |
| Cc1ccc(C2CC23C(=O)N(CCO)c2cc(Cl)c(-c4ccc(-c5ccncc5)cc4)cc23)cc1C(=O)O (stereo not shown) [Example 105] | 81 | – | – |
| COc1ccc(C2CC23C(=O)Nc2cc(F)c(-c4ccc(-c5ccc(-n6ccnn6)cc5)cc4)cc23)cc1CC(=O)O (stereo not shown) [Example 177] | – | – | activation at 1 µM (1 μM): 51% |
| Cn1cc(C2CC23C(=O)Nc2cc(F)c(-c4ccc(-c5ccccc5O)cc4)cc23)cc1C(=O)O (stereo not shown) [Example 14] | 48 | – | – |
| Cn1cc(C2CC23C(=O)Nc2cc(Cl)c(-c4ccc(-c5ccc(-n6cncn6)cc5)cc4)cc23)cc1C(=O)O (stereo not shown) [Example 126] | – | – | activation at 1 µM (1 μM): 38% |
| Cc1ccc(C2CC23C(=O)N(C)c2cc(Cl)c(-c4ccc(-c5ncccc5O)cc4)cc23)cc1C(=O)O (stereo not shown) [Example 36] | – | 39 | – |
| O=C(O)Cc1cccc(C2CC23C(=O)Nc2cc(Cl)c(-c4ccc(-c5cccnc5)cc4)cc23)c1 (stereo not shown) [Example 65] | – | 89 | – |
| O=C(O)Cc1cccc(C2CC23C(=O)Nc2cc(Cl)c(-c4ccc(-c5ccccc5O)cn4)cc23)c1 (stereo not shown) [Example 18] | – | – | Percentage activation of beta 1 at given concentration (10 μM): 168% at 10 μM |
| O=C(O)Cc1cccc(C2CC23C(=O)Nc2cc(Cl)c(-c4ccc(-c5ccccc5O)cn4)cc23)c1 (stereo not shown) [Example 17] | – | – | Percentage activation of beta 1 at given concentration (10 μM): 88% at 10 μM |
| CC(C)c1ccc(C2CC23C(=O)Nc2cc(Cl)c(-c4ccc(-c5ncccc5O)cc4)cc23)cc1C(=O)O (stereo not shown) [Example 23] | 63 | – | – |
| Cc1ccc(C2CC23C(=O)Nc2cc(F)c(-c4ccc(-c5ccccc5O)cc4)cc23)cc1CC(=O)O (stereo not shown) [Example 6] | 66 | – | – |
| O=C(O)Cc1cccc(C2CC23C(=O)Nc2cc(Cl)c(-c4ccc(-c5ccncc5)cc4)cc23)c1 (stereo not shown) [Example 58] | – | – | Percentage activation of beta 1 at given concentration (3 μM): 47% at 3 μM |

More lines, main results first:

| activation at 3 µM (3 μM) [%] | activation at 10 µM (10 μM) [%] | Compound | also measured |
| --- | --- | --- | --- |
| 100 | – | Cc1ccc(C2CC23C(=O)Nc2cc(Cl)c(-c4ccc(-c5ccc(-n6cncn6)cc5)cc4)cc23)cc1C(=O)O (stereo not shown) [Example 116] | – |
| 47 | – | Cc1ccc(C2CC23C(=O)Nc2cc(Cl)c(-c4ccc(Cc5ccccc5O)cc4)cc23)cc1C(=O)O (stereo not shown) [Example 34] | – |
| – | 51 | CC(C)c1ccc(C2CC23C(=O)Nc2cc(Cl)c(-c4ccc(OCCO)cc4)cc23)cc1C(=O)O (stereo not shown) [Example 52] | – |
| 34 | – | CC(C)c1ccc(C2CC23C(=O)Nc2cc(Cl)c(-c4ccc(N5CCC[C@H]5CO)cc4)cc23)cc1C(=O)O (stereo partly shown) [Example 51] | – |
| 81 | – | Cc1ccc(C2CC23C(=O)Nc2cc(Cl)c(-c4ccc(-c5ccncc5)cc4)cc23)cc1CC(=O)O (stereo not shown) [Example 64] | – |
| – | 74 | O=C(O)Cc1cccc(C2CC23C(=O)Nc2cc(Cl)c(-c4ccc(C5(CO)CC5)cc4)cc23)c1 (stereo not shown) [Example 48] | – |
| – | 83 | Cc1ccc(C2CC23C(=O)Nc2cc(F)c(-c4ccc(-c5ccccc5O)cc4)cc23)cc1C(=O)O (stereo not shown) [Example 4] | – |
| – | 86 | Cc1ccc(C2CC23C(=O)Nc2cc(Cl)c(-c4ccc(-c5cccnc5)cc4)cc23)cc1C(=O)O (stereo not shown) [Example 62] | – |
| – | 127 | Cc1ccc(C2CC23C(=O)Nc2cc(Cl)c(-c4ccc(-c5cnn(C)c5)cc4)cc23)cc1C(=O)O (stereo not shown) [Example 85] | – |
| – | 271 | CC(C)c1ccc(C2CC23C(=O)Nc2cc(Cl)c(-c4ccc(-c5ccncc5O)cc4)cc23)cc1C(=O)O (stereo not shown) [Example 22] | – |
| – | 36 | Cc1ccc(C2CC23C(=O)Nc2cc(Cl)c(-c4ccc(N5CCOCC5)cc4)cc23)cc1C(=O)O (stereo not shown) [Example 66] | – |
| – | 25 | Cc1ccc(C2CC23C(=O)Nc2cc(Cl)c(-c4ccc(-c5ccccc5O)cn4)cc23)cc1C(=O)O (stereo not shown) [Example 8] | – |
| 53 | – | Cc1ccc(C2CC23C(=O)Nc2cc(Cl)c(-c4ccc(N5CCC[C@H]5CO)cc4)cc23)cc1C(=O)O (stereo partly shown) [Example 49] | – |
| – | 54 | Cc1ccc(C2CC23C(=O)Nc2cc(Cl)c(-c4ccc(-c5ccccc5)cn4)cc23)cc1C(=O)O (stereo not shown) [Example 75] | – |
| – | 66 | Cc1ccc(C2CC23C(=O)Nc2cc(Cl)c(-c4ccc(-c5ccccn5)cc4)cc23)cc1C(=O)O (stereo not shown) [Example 78] | – |
| – | 47 | Cc1ccc(C2CC23C(=O)Nc2cc(Cl)c(-c4ccc(-c5ccccc5S(C)(=O)=O)cc4)cc23)cc1C(=O)O (stereo not shown) [Example 87] | – |
| 93 | – | Cc1ccc(C2CC23C(=O)Nc2cc(Cl)c(-c4ccc(-c5ccncc5O)cc4)cc23)cc1C(=O)O (stereo not shown) [Example 21] | – |
